Reference: ChEMBL document CHEMBL3885861, “Open TG-GATES”

Species: Rattus norvegicus
Assay: Open TG-GATES - Regimen: Daily Repeat
Type: toxicity, organism-based, Sprague-Dawley
Design: regimen Daily Repeat, gender Male, age 6 weeks
Details: in vivo, po, 0 mg/kg, route gavage, dose level Control; for APTT / Bas / Eos / Fbg / Hb / Ht / Lym / MCH / MCHC / MCV / Mono / Neu / PT / Plat / RBC / Ret / WBC: tissue Blood; for KIDNEY_L / KIDNEY_R / KIDNEY_TOTAL: tissue Kidney; for LIVER: tissue Liver; for A/G / ALP / ALT / AST / BUN / CRE / Ca / Cl / DBIL / GLC / IP / K / LDH / Na / PL / RALB / TBIL / TC / TG / TP / gamma-GTP: tissue Plasma

SMILES: Cc1nnc2n1-c1ccc(Cl)cc1C(c1ccccc1Cl)=NC2 [TRIAZOLAM]
- TERMINAL_BW (72 h, time 3 day): 223.3 g
- APTT (72 h, time 3 day): 19.2 s
- Bas (72 h, time 3 day): 0%
- Eos (72 h, time 3 day): 1.2%
- Fbg (72 h, time 3 day): 272.8 mg/dL
- Hb (72 h, time 3 day): 13.7 g/dL
- Ht (72 h, time 3 day): 40.9%
- Lym (72 h, time 3 day): 75.6%
- MCH (72 h, time 3 day): 21 pg
- MCHC (72 h, time 3 day): 33.5%
- MCV (72 h, time 3 day): 62.7 fL
- Mono (72 h, time 3 day): 3%
- Neu (72 h, time 3 day): 19.2%
- PT (72 h, time 3 day): 13 s
- Plat (72 h, time 3 day): 121.4 x10_4/uL
- RBC (72 h, time 3 day): 651.8 x10_4/ul
- Ret (72 h, time 3 day): 7.4%
- WBC (72 h, time 3 day): 85.5 x10_2/uL
- KIDNEY_L (72 h, time 3 day): 1 g
- KIDNEY_R (72 h, time 3 day): 1 g
- KIDNEY_TOTAL (72 h, time 3 day): 1.9 g
- LIVER (72 h, time 3 day): 10.5 g
- A/G (72 h, time 3 day): 0.9
- ALP (72 h, time 3 day): 1815 IU/L
- ALT (72 h, time 3 day): 48.2 IU/L
- AST (72 h, time 3 day): 75.8 IU/L
- BUN (72 h, time 3 day): 15 mg/dL
- CRE (72 h, time 3 day): 0.2 mg/dL
- Ca (72 h, time 3 day): 11.3 mg/dL
- Cl (72 h, time 3 day): 104.8 meq/L
- DBIL (72 h, time 3 day): 0.014 mg/dL
- GLC (72 h, time 3 day): 172.2 mg/dL
- IP (72 h, time 3 day): 8.4 mg/dL
- K (72 h, time 3 day): 4 meq/L
- LDH (72 h, time 3 day): 74.8 IU/L
- Na (72 h, time 3 day): 143.2 meq/L
- PL (72 h, time 3 day): 168.8 mg/dL
- RALB (72 h, time 3 day): 2.6 g/dL
- TBIL (72 h, time 3 day): 0.054 mg/dL
- TC (72 h, time 3 day): 86.4 mg/dL
- TG (72 h, time 3 day): 126 mg/dL
- TP (72 h, time 3 day): 5.6 g/dL
- gamma-GTP (72 h, time 3 day): 1.2 IU/L
- TERMINAL_BW ([…], time 7 day): 259.3 g
- TERMINAL_BW ([…], time 14 day): 313.4 g
- TERMINAL_BW ([…], time 28 day): 389.2 g
- APTT ([…], time 7 day): 21.5 s
- Bas ([…], time 7 day): 0%
- Eos ([…], time 7 day): 1.2%
- Fbg ([…], time 7 day): 262.4 mg/dL
- Hb ([…], time 7 day): 13.7 g/dL
- Ht ([…], time 7 day): 40.7%
- Lym ([…], time 7 day): 76.4%
- MCH ([…], time 7 day): 20.6 pg
- MCHC ([…], time 7 day): 33.7%
- MCV ([…], time 7 day): 61.2 fL
- Mono ([…], time 7 day): 2.4%
- Neu ([…], time 7 day): 19.4%
- PT ([…], time 7 day): 12.8 s
- Plat ([…], time 7 day): 126.9 x10_4/uL
- RBC ([…], time 7 day): 665.6 x10_4/ul
- Ret ([…], time 7 day): 5.6%
- WBC ([…], time 7 day): 92.9 x10_2/uL
- APTT ([…], time 14 day): 18.7 s
- Bas ([…], time 14 day): 0.4%
- Eos ([…], time 14 day): 1%
- Fbg ([…], time 14 day): 250.2 mg/dL
- Hb ([…], time 14 day): 14.4 g/dL
- Ht ([…], time 14 day): 43.9%
- Lym ([…], time 14 day): 74.6%
- MCH ([…], time 14 day): 19.9 pg
- MCHC ([…], time 14 day): 32.8%
- MCV ([…], time 14 day): 60.6 fL
- Mono ([…], time 14 day): 2.4%
- Neu ([…], time 14 day): 21%
- PT ([…], time 14 day): 13.6 s
- Plat ([…], time 14 day): 122.6 x10_4/uL
- RBC ([…], time 14 day): 723.8 x10_4/ul
- Ret ([…], time 14 day): 4.5%
- WBC ([…], time 14 day): 116.9 x10_2/uL
- APTT ([…], time 28 day): 18.6 s
- Bas ([…], time 28 day): 0.4%
- Eos ([…], time 28 day): 1.4%
- Fbg ([…], time 28 day): 262.6 mg/dL
- Hb ([…], time 28 day): 15.3 g/dL
- Ht ([…], time 28 day): 45.3%
- Lym ([…], time 28 day): 79.6%
- MCH ([…], time 28 day): 18.8 pg
- MCHC ([…], time 28 day): 33.7%
- MCV ([…], time 28 day): 55.8 fL
- Mono ([…], time 28 day): 2%
- Neu ([…], time 28 day): 15.8%
- PT ([…], time 28 day): 13.4 s
- Plat ([…], time 28 day): 106.8 x10_4/uL
- RBC ([…], time 28 day): 812.8 x10_4/ul
- Ret ([…], time 28 day): 2.1%
- WBC ([…], time 28 day): 76.6 x10_2/uL
- KIDNEY_L ([…], time 7 day): 1.1 g
- KIDNEY_R ([…], time 7 day): 1.1 g
- KIDNEY_TOTAL ([…], time 7 day): 2.2 g
- KIDNEY_L ([…], time 14 day): 1.2 g
- KIDNEY_R ([…], time 14 day): 1.2 g
- KIDNEY_TOTAL ([…], time 14 day): 2.4 g
- KIDNEY_L ([…], time 28 day): 1.4 g
- KIDNEY_R ([…], time 28 day): 1.4 g
- KIDNEY_TOTAL ([…], time 28 day): 2.7 g
- LIVER ([…], time 7 day): 11.8 g
- LIVER ([…], time 14 day): 13.3 g
- LIVER ([…], time 28 day): 15.3 g
- A/G ([…], time 7 day): 0.9
- ALP ([…], time 7 day): 1652.6 IU/L
- ALT ([…], time 7 day): 45.4 IU/L
- AST ([…], time 7 day): 75 IU/L
- BUN ([…], time 7 day): 16.8 mg/dL
- CRE ([…], time 7 day): 0.2 mg/dL
- Ca ([…], time 7 day): 10.9 mg/dL
- Cl ([…], time 7 day): 105.8 meq/L
- DBIL ([…], time 7 day): 0.01 mg/dL
- GLC ([…], time 7 day): 188.2 mg/dL
- IP ([…], time 7 day): 7.6 mg/dL
- K ([…], time 7 day): 4.3 meq/L
- LDH ([…], time 7 day): 73.6 IU/L
- Na ([…], time 7 day): 141.8 meq/L
- PL ([…], time 7 day): 161.6 mg/dL
- RALB ([…], time 7 day): 2.6 g/dL
- TBIL ([…], time 7 day): 0.042 mg/dL
- TC ([…], time 7 day): 85 mg/dL
- TG ([…], time 7 day): 122.8 mg/dL
- TP ([…], time 7 day): 5.6 g/dL
- gamma-GTP ([…], time 7 day): 1 IU/L
- A/G ([…], time 14 day): 0.8
- ALP ([…], time 14 day): 1514.4 IU/L
- ALT ([…], time 14 day): 46 IU/L
- AST ([…], time 14 day): 79.6 IU/L
- BUN ([…], time 14 day): 15.4 mg/dL
- CRE ([…], time 14 day): 0.2 mg/dL
- Ca ([…], time 14 day): 10.9 mg/dL
- Cl ([…], time 14 day): 104.4 meq/L
- DBIL ([…], time 14 day): 0.012 mg/dL
- GLC ([…], time 14 day): 172.4 mg/dL
- IP ([…], time 14 day): 7.1 mg/dL
- K ([…], time 14 day): 3.9 meq/L
- LDH ([…], time 14 day): 90 IU/L
- Na ([…], time 14 day): 143 meq/L
- PL ([…], time 14 day): 167.4 mg/dL
- RALB ([…], time 14 day): 2.6 g/dL
- TBIL ([…], time 14 day): 0.044 mg/dL
- TC ([…], time 14 day): 82.4 mg/dL
- TG ([…], time 14 day): 135.6 mg/dL
- TP ([…], time 14 day): 5.7 g/dL
- gamma-GTP ([…], time 14 day): 1.4 IU/L
- A/G ([…], time 28 day): 0.8
- ALP ([…], time 28 day): 1373.8 IU/L
- ALT ([…], time 28 day): 36.6 IU/L
- AST ([…], time 28 day): 62 IU/L
- BUN ([…], time 28 day): 15.4 mg/dL
- CRE ([…], time 28 day): 0.2 mg/dL
- Ca ([…], time 28 day): 10.7 mg/dL
- Cl ([…], time 28 day): 105.8 meq/L
- DBIL ([…], time 28 day): 0.008 mg/dL
- GLC ([…], time 28 day): 185.8 mg/dL
- IP ([…], time 28 day): 6.3 mg/dL
- K ([…], time 28 day): 4.2 meq/L
- LDH ([…], time 28 day): 57 IU/L
- Na ([…], time 28 day): 144 meq/L
- PL ([…], time 28 day): 158.4 mg/dL
- RALB ([…], time 28 day): 2.7 g/dL
- TBIL ([…], time 28 day): 0.056 mg/dL
- TC ([…], time 28 day): 72.8 mg/dL
- TG ([…], time 28 day): 159.8 mg/dL
- TP ([…], time 28 day): 6.1 g/dL
- gamma-GTP ([…], time 28 day): 1 IU/L
